Results: US7880059B2, “Production of proanthocyanidins to improve forage quality” (The Samuel Roberts Noble Foundation, priority 2007, dated 2011)

T1: UGT78G1 (Medicago truncatula, UniProt A6XNC6)
T1 sequence (A6XNC6 1-454): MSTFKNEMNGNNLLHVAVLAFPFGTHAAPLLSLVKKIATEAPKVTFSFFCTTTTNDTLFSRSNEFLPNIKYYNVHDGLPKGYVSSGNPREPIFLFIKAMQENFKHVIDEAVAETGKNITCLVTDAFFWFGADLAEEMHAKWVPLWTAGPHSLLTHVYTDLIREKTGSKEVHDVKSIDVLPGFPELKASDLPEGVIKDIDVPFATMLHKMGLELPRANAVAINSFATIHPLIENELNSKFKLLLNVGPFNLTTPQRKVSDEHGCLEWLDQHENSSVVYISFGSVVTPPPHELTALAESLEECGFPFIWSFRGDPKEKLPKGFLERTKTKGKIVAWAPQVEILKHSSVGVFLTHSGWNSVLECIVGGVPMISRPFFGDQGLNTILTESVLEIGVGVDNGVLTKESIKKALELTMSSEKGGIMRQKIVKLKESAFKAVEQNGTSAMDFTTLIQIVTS


What was measured:
UGT78G1 [1] = target: T1, UGT78G1; test: Kinetic analysis of UGT78G1 (GT83F) with (iso)flavonoid acceptor substrates, UDP-[14C]-glucose donor; conditions: for Kcat/Km ratio: unit not given; for Kcat / Km / Vmax: recombinant UGT78G1, donor UDP-glucose, 30° C., pH 7.0; for Vmax compared with that for most of the other substrates / substrate quality for UGT78G1 in vitro: in words
Experimental: The PCR product was purified, ligated to pGEMTeasy vector (Promega, Madison, Wis., USA), sequenced, excised and re-cloned between the BamHI and NotI sites of pET28a(+) (Novagen, Madison, Wis., USA) with a hexahistidine tag and a thrombin cleavage site. E. coli BL21 (DE3) cells harboring the expression construct were grown to an OD600 of 0.4-0.5, and expression was initiated by addition of isopropyl 1-thio-β-D-galactopyranoside (IPTG) at a final concentration of 0.2 mM, with further incubation with shaking overnight at 16° C. The enzyme was purified from E. coli lysates by nickel affinity chromatography.
Reactions were stopped with TCA after 15 min incubation at 30° C. Samples were extracted with 250 μl of ethyl acetate, and 200 μl were taken for liquid scintillation counting (Beckman LS6500). Data were analyzed using Hyper32 software for the analysis of enzyme-kinetic data (J. S. Easterby, University of Liverpool, Liverpool, UK; available at www.liv.ac.uk/˜jse/software.html).

UGT78G1 [2] = target: T1, UGT78G1; test: UGT78G1 enzyme reactions with acceptor substrates, products analyzed by HPLC; assay type: biochemical; parameters: hexahistidine tag with thrombin cleavage site (pET28a(+)) (N); made in house; host or cells: E. coli BL21 (DE3)
Excerpt: Reactions were stopped with TCA and products analyzed by HPLC as described above.

UGT78G1 [3] = target: T1, UGT78G1; parameters: hexahistidine tag with thrombin cleavage site (pET28a(+)) (N); made in house; host or cells: E. coli BL21 (DE3); conditions: in vitro (Modolo et al, 2007); cited from earlier work
[4] = substrate: O=c1c(-c2ccc(O)cc2)coc2cc(O)cc(O)c12; test: purified protein, by the assay type; conditions: other: recombinant UGT78G1, donor UDP-glucose, 30° C., pH 7.0
[5] = substrate: O=c1c(O)c(-c2ccc(O)c(O)c2)oc2cc(O)cc(O)c12; test: purified protein, by the assay type; conditions: other: recombinant UGT78G1, donor UDP-glucose, 30° C., pH 7.0
[6] = substrate: O=c1c(O)c(-c2ccc(O)cc2)oc2cc(O)cc(O)c12; test: purified protein, by the assay type; conditions: other: recombinant UGT78G1, donor UDP-glucose, 30° C., pH 7.0
[7] = substrate: O=c1cc(-c2ccc(O)cc2)oc2cc(O)cc(O)c12; test: purified protein, by the assay type; conditions: other: recombinant UGT78G1, donor UDP-glucose, 30° C., pH 7.0

| Molecule | position of glycosylation by UGT78G1 (UGT78G1 [2]) | Kcat (UGT78G1 [1]) [s⁻¹] | Km (UGT78G1 [1]) [µM] | Vmax (UGT78G1 [1]) [µmol/min] | also measured |
| --- | --- | --- | --- | --- | --- |
| O=c1cc(-c2ccc(O)cc2)oc2cc(O)cc(O)c12 [apigenin] | 7-O-position |  |  |  | Kcat/Km ratio (UGT78G1 [1]): 1,534 |
| COc1ccc(-c2coc3cc(O)cc(O)c3c2=O)cc1 [biochanin A (4′-methoxy genistein)] | 7-O-position | 0.012 | 11.7 | 0.3666 |  |
| O=c1c(-c2ccc(O)cc2)coc2cc(O)ccc12 [daidzein] |  |  | 1.6 |  |  |
| COc1ccc(-c2coc3cc(O)ccc3c2=O)cc1 [formononetin] | 7-O-position | 0.0029 | 1.5 | 0.0879 | preference (Kcat/Km) for formononetin over daidzein (UGT78G1 [1]; relative to daidzein): about 2 fold |
| O=c1c(-c2ccc(O)cc2)coc2cc(O)cc(O)c12 [genistein] | 7-O-position | 0.004 |  | 1.2050 | Km of genistein relative to Km of daidzein (UGT78G1 [1]; relative to daidzein): 23 fold; Kcat/Km ratio (UGT78G1 [1]): 1,098 |
| O=c1c(O)c(-c2ccc(O)cc2)oc2cc(O)cc(O)c12 [kaempferol] | 3-position | 0.053 |  | 1.5830 | Vmax compared with that for most of the other substrates (UGT78G1 [1]): much higher |
| Oc1ccc(-c2[o+]c3cc(O)cc(O)c3cc2O)cc1 [pelargonidin] |  | 0.0057 | 71.8 | 0.1698 | substrate quality for UGT78G1 in vitro (UGT78G1 [1]): relatively poor substrates; activity of UGT78G1 with substrate (UGT78G1 [3]): shows activity |
| O=c1c(O)c(-c2ccc(O)c(O)c2)oc2cc(O)cc(O)c12 [quercetin] | 3-position | 0.029 |  | 0.8557 | Vmax compared with that for most of the other substrates (UGT78G1 [1]): much higher |
| cyanidin |  | 0.0068 | 52 | 0.2025 | substrate quality for UGT78G1 in vitro (UGT78G1 [1]): relatively poor substrates; activity of UGT78G1 with substrate (UGT78G1 [3]): shows activity |
| UGT78G1 (Medicago truncatula) (protein) MSTFKNEMNGNNLLHVAVLAFPFGTHAAPLLSLVKKIATEAPKVTFSFFCTTTTNDTLFSRSNEFLPNIKYYNVHDGLPKGYVSSGNPREPIFLFIKAMQENFKHVIDEAVAETGKNITCLVTDAFFWFGADLAEEMHAKWVPLWTAGPHSLLTHVYTDLIREKTGSKEVHDVKSIDVLPGFPELKASDLPEGVIKDIDVPFATMLHKMGLELPRANAVAINSFATIHPLIENELNSKFKLLLNVGPFNLTTPQRKVSDEHGCLEWLDQHENSSVVYISFGSVVTPPPHELTALAESLEECGFPFIWSFRGDPKEKLPKGFLERTKTKGKIVAWAPQVEILKHSSVGVFLTHSGWNSVLECIVGGVPMISRPFFGDQGLNTILTESVLEIGVGVDNGVLTKESIKKALELTMSSEKGGIMRQKIVKLKESAFKAVEQNGTSAMDFTTLIQIVTS |  |  |  |  | Km [4]: 36.7 µM; Km [5]: 28.7 µM; Km [6]: 89.8 µM; Km [7]: 1.5 µM; Vmax [7]: 0.0688 µmol/min; kcat [7]: 0.0023 s⁻¹; kcat/Km [7]: 1530 M⁻¹ s⁻¹ |
